From the supplement of paper PMC10307832

Experiments:
Test in all cases: relative viability (nuclei count vs DMSO), 5 days (fraction); higher = more cells survive
Dinaciclib + Dasatinib = compound: CCc1cnn2c(NCc3ccc[n+]([O-])c3)cc(N3CCCC[C@H]3CCO)nc12 [Dinaciclib] + Cc1nc(Nc2ncc(C(=O)Nc3c(C)cccc3Cl)s2)cc(N2CCN(CCO)CC2)n1 [Dasatinib] (partner 0.075 µM)
Outline: (§1)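 Each reported value is a median over duplicate plates. It expresses relative viability: treated-well nuclei count divided by vehicle-well nuclei count. Lung cancer cell lines in 1536-well plates were dosed by pin tool a day after seeding, alone with one drug or with a fixed anchor-drug dose plus five library-drug doses (not always all listed) in √10 steps, and nuclei were counted after 5 days.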

Dinaciclib + AZD7762 = compound: CCc1cnn2c(NCc3ccc[n+]([O-])c3)cc(N3CCCC[C@H]3CCO)nc12 [Dinaciclib] + NC(=O)Nc1cc(-c2cccc(F)c2)sc1C(=O)N[C@H]1CCCNC1 [AZD7762] (partner 0.2 µM)
Outline: as §1

Dinaciclib + Tozasertib = compound: CCc1cnn2c(NCc3ccc[n+]([O-])c3)cc(N3CCCC[C@H]3CCO)nc12 [Dinaciclib] + Cc1cc(Nc2cc(N3CCN(C)CC3)nc(Sc3ccc(NC(=O)C4CC4)cc3)n2)n[nH]1 [Tozasertib] (partner 0.1 µM)
Outline: as §1

Dinaciclib + Phenformin = compound: CCc1cnn2c(NCc3ccc[n+]([O-])c3)cc(N3CCCC[C@H]3CCO)nc12 [Dinaciclib] + N=C(N)NC(=N)NCCc1ccccc1 [Phenformin] (partner 250 µM)
Outline: as §1

Dinaciclib + Pemetrexed = compound: CCc1cnn2c(NCc3ccc[n+]([O-])c3)cc(N3CCCC[C@H]3CCO)nc12 [Dinaciclib] + Nc1nc2[nH]cc(CCc3ccc(C(=O)N[C@@H](CCC(=O)O)C(=O)O)cc3)c2c(=O)[nH]1 [Pemetrexed] (partner 0.2 µM)
Outline: as §1

Dinaciclib + OSI-027 = compound: CCc1cnn2c(NCc3ccc[n+]([O-])c3)cc(N3CCCC[C@H]3CCO)nc12 [Dinaciclib] + COc1cccc2cc(-c3nc([C@H]4CC[C@H](C(=O)O)CC4)n4ncnc(N)c34)[nH]c12 [OSI-027] (partner 0.5 µM)
Outline: as §1

Dinaciclib + Palbociclib = compound: CCc1cnn2c(NCc3ccc[n+]([O-])c3)cc(N3CCCC[C@H]3CCO)nc12 [Dinaciclib] + CC(=O)c1c(C)c2cnc(Nc3ccc(N4CCNCC4)cn3)nc2n(C2CCCC2)c1=O [Palbociclib] (partner 0.5 µM)
Outline: as §1

Dinaciclib + Trametinib = compound: CCc1cnn2c(NCc3ccc[n+]([O-])c3)cc(N3CCCC[C@H]3CCO)nc12 [Dinaciclib] + CC(=O)Nc1cccc(-n2c(=O)n(C3CC3)c(=O)c3c(Nc4ccc(I)cc4F)n(C)c(=O)c(C)c32)c1 [Trametinib] (partner 0.02 µM)
Outline: as §1

Dinaciclib + Luminespib = compound: CCc1cnn2c(NCc3ccc[n+]([O-])c3)cc(N3CCCC[C@H]3CCO)nc12 [Dinaciclib] + CCNC(=O)c1noc(-c2cc(C(C)C)c(O)cc2O)c1-c1ccc(CN2CCOCC2)cc1 [Luminespib] (partner 0.01 µM)
Outline: as §1

Dinaciclib + Olaparib = compound: CCc1cnn2c(NCc3ccc[n+]([O-])c3)cc(N3CCCC[C@H]3CCO)nc12 [Dinaciclib] + O=C(c1cc(Cc2n[nH]c(=O)c3ccccc23)ccc1F)N1CCN(C(=O)C2CC2)CC1 [Olaparib] (partner 8 µM)
Outline: as §1

Dinaciclib + Decitabine = compound: CCc1cnn2c(NCc3ccc[n+]([O-])c3)cc(N3CCCC[C@H]3CCO)nc12 [Dinaciclib] + Nc1ncn([C@H]2C[C@H](O)[C@@H](CO)O2)c(=O)n1 [Decitabine] (partner 2 µM)
Outline: as §1

Dinaciclib + Vorinostat = compound: CCc1cnn2c(NCc3ccc[n+]([O-])c3)cc(N3CCCC[C@H]3CCO)nc12 [Dinaciclib] + O=C(CCCCCCC(=O)Nc1ccccc1)NO [Vorinostat] (partner 1 µM)
Outline: as §1

Dinaciclib = compound: CCc1cnn2c(NCc3ccc[n+]([O-])c3)cc(N3CCCC[C@H]3CCO)nc12 [Dinaciclib]
Outline: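 Viability is treated-well nuclei as a fraction of vehicle-well nuclei, reported as the median across plates. Before counting, lung cancer cell lines were kept overnight at 37 °C in 1536-well plates, pinned with five √10-spaced library-drug doses on vehicle-anchored plates, and left 5 days without medium change, then fixed, permeabilised and Hoechst-stained in one step, imaged at 4× and counted by MetaXpress. A plate passed only if control CV was below 25% and at least one doubling occurred.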

Dinaciclib + Crizotinib = compound: CCc1cnn2c(NCc3ccc[n+]([O-])c3)cc(N3CCCC[C@H]3CCO)nc12 [Dinaciclib] + C[C@@H](Oc1cc(-c2cnn(C3CCNCC3)c2)cnc1N)c1c(Cl)ccc(F)c1Cl [Crizotinib] (partner 1 µM)
Outline: as §1

Dinaciclib + Pictilisib = compound: CCc1cnn2c(NCc3ccc[n+]([O-])c3)cc(N3CCCC[C@H]3CCO)nc12 [Dinaciclib] + CS(=O)(=O)N1CCN(Cc2cc3nc(-c4cccc5[nH]ncc45)nc(N4CCOCC4)c3s2)CC1 [Pictilisib] (partner 1 µM)
Outline: as §1

Dinaciclib + Lapatinib = compound: CCc1cnn2c(NCc3ccc[n+]([O-])c3)cc(N3CCCC[C@H]3CCO)nc12 [Dinaciclib] + CS(=O)(=O)CCNCc1ccc(-c2ccc3ncnc(Nc4ccc(OCc5cccc(F)c5)c(Cl)c4)c3c2)o1 [Lapatinib] (partner 2 µM)
Outline: as §1

Dinaciclib + Bortezomib = compound: CCc1cnn2c(NCc3ccc[n+]([O-])c3)cc(N3CCCC[C@H]3CCO)nc12 [Dinaciclib] + CC(C)C[C@H](NC(=O)[C@H](Cc1ccccc1)NC(=O)c1cnccn1)B(O)O [Bortezomib] (partner 0.002 µM)
Outline: as §1

Dinaciclib + Navitoclax = compound: CCc1cnn2c(NCc3ccc[n+]([O-])c3)cc(N3CCCC[C@H]3CCO)nc12 [Dinaciclib] + CC1(C)CCC(c2ccc(Cl)cc2)=C(CN2CCN(c3ccc(C(=O)NS(=O)(=O)c4ccc(N[C@H](CCN5CCOCC5)CSc5ccccc5)c(S(=O)(=O)C(F)(F)F)c4)cc3)CC2)C1 [Navitoclax] (partner 0.5 µM)
Outline: as §1

Dinaciclib + Foretinib = compound: CCc1cnn2c(NCc3ccc[n+]([O-])c3)cc(N3CCCC[C@H]3CCO)nc12 [Dinaciclib] + COc1cc2c(Oc3ccc(NC(=O)C4(C(=O)Nc5ccc(F)cc5)CC4)cc3F)ccnc2cc1OCCCN1CCOCC1 [Foretinib] (partner 0.25 µM)
Outline: as §1

Dinaciclib + Alpelisib = compound: CCc1cnn2c(NCc3ccc[n+]([O-])c3)cc(N3CCCC[C@H]3CCO)nc12 [Dinaciclib] + Cc1nc(NC(=O)N2CCC[C@H]2C(N)=O)sc1-c1ccnc(C(C)(C)C(F)(F)F)c1 [Alpelisib] (partner 2 µM)
Outline: as §1

Dinaciclib + Linsitinib = compound: CCc1cnn2c(NCc3ccc[n+]([O-])c3)cc(N3CCCC[C@H]3CCO)nc12 [Dinaciclib] + C[C@]1(O)C[C@@H](c2nc(-c3ccc4ccc(-c5ccccc5)nc4c3)c3c(N)nccn32)C1 [Linsitinib] (partner 1 µM)
Outline: as §1

## NCI-H522
Dinaciclib + Dasatinib; first compound 0.009487 µM
  relative viability: 0.979
Dinaciclib + Dasatinib; first compound 0.03 µM
  relative viability: 0.589
Dinaciclib + Dasatinib; first compound 0.09487 µM
  relative viability: 0.36
Dinaciclib + Dasatinib; first compound 0.3 µM
  relative viability: 0.319
Dinaciclib + AZD7762; first compound 0.009487 µM
  relative viability: 0.899
Dinaciclib + AZD7762; first compound 0.03 µM
  relative viability: 0.991
Dinaciclib + AZD7762; first compound 0.09487 µM
  relative viability: 0.359
Dinaciclib + AZD7762; first compound 0.3 µM
  relative viability: 0.211
Dinaciclib + Tozasertib; first compound 0.009487 µM
  relative viability: 0.488
Dinaciclib + Tozasertib; first compound 0.03 µM
  relative viability: 0.418
Dinaciclib + Tozasertib; first compound 0.09487 µM
  relative viability: 0.372
Dinaciclib + Tozasertib; first compound 0.3 µM
  relative viability: 0.278
Dinaciclib + Phenformin; first compound 0.009487 µM
  relative viability: 0.598
Dinaciclib + Phenformin; first compound 0.03 µM
  relative viability: 0.5
Dinaciclib + Phenformin; first compound 0.09487 µM
  relative viability: 0.341
Dinaciclib + Phenformin; first compound 0.3 µM
  relative viability: 0.339
Dinaciclib + Pemetrexed; first compound 0.009487 µM
  relative viability: 1.32
Dinaciclib + Pemetrexed; first compound 0.03 µM
  relative viability: 1.14
Dinaciclib + Pemetrexed; first compound 0.09487 µM
  relative viability: 0.371
Dinaciclib + Pemetrexed; first compound 0.3 µM
  relative viability: 0.25
Dinaciclib + OSI-027; first compound 0.009487 µM
  relative viability: 0.76
Dinaciclib + OSI-027; first compound 0.03 µM
  relative viability: 0.517
Dinaciclib + OSI-027; first compound 0.09487 µM
  relative viability: 0.439
Dinaciclib + OSI-027; first compound 0.3 µM
  relative viability: 0.382
Dinaciclib + Palbociclib; first compound 0.009487 µM
  relative viability: 1.19
Dinaciclib + Palbociclib; first compound 0.03 µM
  relative viability: 0.855
Dinaciclib + Palbociclib; first compound 0.09487 µM
  relative viability: 0.316
Dinaciclib + Palbociclib; first compound 0.3 µM
  relative viability: 0.255
Dinaciclib + Trametinib; first compound 0.009487 µM
  relative viability: 0.757
Dinaciclib + Trametinib; first compound 0.03 µM
  relative viability: 0.795
Dinaciclib + Trametinib; first compound 0.09487 µM
  relative viability: 0.255
Dinaciclib + Trametinib; first compound 0.3 µM
  relative viability: 0.251
Dinaciclib + Luminespib; first compound 0.009487 µM
  relative viability: 1.2
Dinaciclib + Luminespib; first compound 0.03 µM
  relative viability: 0.653
Dinaciclib + Luminespib; first compound 0.09487 µM
  relative viability: 0.465
Dinaciclib + Luminespib; first compound 0.3 µM
  relative viability: 0.276
Dinaciclib + Olaparib; first compound 0.009487 µM
  relative viability: 0.573
Dinaciclib + Olaparib; first compound 0.03 µM
  relative viability: 0.469
Dinaciclib + Olaparib; first compound 0.09487 µM
  relative viability: 0.339
Dinaciclib + Olaparib; first compound 0.3 µM
  relative viability: 0.204
Dinaciclib + Decitabine; first compound 0.009487 µM
  relative viability: 0.688
Dinaciclib + Decitabine; first compound 0.03 µM
  relative viability: 0.65
Dinaciclib + Decitabine; first compound 0.09487 µM
  relative viability: 0.347
Dinaciclib + Decitabine; first compound 0.3 µM
  relative viability: 0.326
Dinaciclib + Vorinostat; first compound 0.009487 µM
  relative viability: 1.13
Dinaciclib + Vorinostat; first compound 0.03 µM
  relative viability: 0.99
Dinaciclib + Vorinostat; first compound 0.09487 µM
  relative viability: 0.449
Dinaciclib + Vorinostat; first compound 0.3 µM
  relative viability: 0.319
Dinaciclib; 0.009487 µM
  relative viability: 0.948
Dinaciclib; 0.03 µM
  relative viability: 0.72
Dinaciclib; 0.09487 µM
  relative viability: 0.353
Dinaciclib; 0.3 µM
  relative viability: 0.296

## NCI-H1299
Dinaciclib + Crizotinib; first compound 0.009487 µM
  relative viability: 0.709
Dinaciclib + Crizotinib; first compound 0.03 µM
  relative viability: 0.681
Dinaciclib + Crizotinib; first compound 0.09487 µM
  relative viability: 0.144
Dinaciclib + Crizotinib; first compound 0.3 µM
  relative viability: 0.111
Dinaciclib + Pictilisib; first compound 0.009487 µM
  relative viability: 0.416
Dinaciclib + Pictilisib; first compound 0.03 µM
  relative viability: 0.0311
Dinaciclib + Pictilisib; first compound 0.09487 µM
  relative viability: 0.0181
Dinaciclib + Pictilisib; first compound 0.3 µM
  relative viability: 0.0214
Dinaciclib + Lapatinib; first compound 0.009487 µM
  relative viability: 0.824
Dinaciclib + Lapatinib; first compound 0.03 µM
  relative viability: 0.198
Dinaciclib + Lapatinib; first compound 0.09487 µM
  relative viability: 0.137
Dinaciclib + Lapatinib; first compound 0.3 µM
  relative viability: 0.124
Dinaciclib + Bortezomib; first compound 0.009487 µM
  relative viability: 1.05
Dinaciclib + Bortezomib; first compound 0.03 µM
  relative viability: 0.216
Dinaciclib + Bortezomib; first compound 0.09487 µM
  relative viability: 0.142
Dinaciclib + Bortezomib; first compound 0.3 µM
  relative viability: 0.135
Dinaciclib + Navitoclax; first compound 0.009487 µM
  relative viability: 1.12
Dinaciclib + Navitoclax; first compound 0.03 µM
  relative viability: 0.27
Dinaciclib + Navitoclax; first compound 0.09487 µM
  relative viability: 0.107
Dinaciclib + Navitoclax; first compound 0.3 µM
  relative viability: 0.107
Dinaciclib + Foretinib; first compound 0.009487 µM
  relative viability: 0.986
Dinaciclib + Foretinib; first compound 0.03 µM
  relative viability: 0.202
Dinaciclib + Foretinib; first compound 0.09487 µM
  relative viability: 0.104
Dinaciclib + Foretinib; first compound 0.3 µM
  relative viability: 0.088
Dinaciclib + Alpelisib; first compound 0.009487 µM
  relative viability: 1.09
Dinaciclib + Alpelisib; first compound 0.03 µM
  relative viability: 0.821
Dinaciclib + Alpelisib; first compound 0.09487 µM
  relative viability: 0.15
Dinaciclib + Alpelisib; first compound 0.3 µM
  relative viability: 0.188
Dinaciclib + Linsitinib; first compound 0.009487 µM
  relative viability: 0.883
Dinaciclib + Linsitinib; first compound 0.03 µM
  relative viability: 0.24
Dinaciclib + Linsitinib; first compound 0.09487 µM
  relative viability: 0.103
Dinaciclib + Linsitinib; first compound 0.3 µM
  relative viability: 0.0705
Dinaciclib + Olaparib; first compound 0.009487 µM
  relative viability: 0.962
Dinaciclib + Olaparib; first compound 0.03 µM
  relative viability: 0.16
Dinaciclib + Olaparib; first compound 0.09487 µM
  relative viability: 0.0946
Dinaciclib + Olaparib; first compound 0.3 µM
  relative viability: 0.104
Dinaciclib; 0.009487 µM
  relative viability: 0.98
Dinaciclib; 0.03 µM
  relative viability: 0.371
Dinaciclib; 0.09487 µM
  relative viability: 0.121
Dinaciclib; 0.3 µM
  relative viability: 0.0997
